Experimental data as given in ChEMBL document CHEMBL1148518, “Synthesis and SAR of alpha-sulfonylcarboxylic acids as potent matrix metalloproteinase inhibitors” (Bioorg Med Chem Lett, 2006).

Key:
[1] = molecular target: 72 kDa type IV collagenase (Homo sapiens, UniProt P08253)
[2] = molecular target: Matrix metalloproteinase-9 (Homo sapiens, UniProt P14780)
Interstitial collagenase = molecular target: T1, Interstitial collagenase (Homo sapiens, UniProt P03956); experiment: Inhibition of MMP1
T1 sequence (P03956 whole entry): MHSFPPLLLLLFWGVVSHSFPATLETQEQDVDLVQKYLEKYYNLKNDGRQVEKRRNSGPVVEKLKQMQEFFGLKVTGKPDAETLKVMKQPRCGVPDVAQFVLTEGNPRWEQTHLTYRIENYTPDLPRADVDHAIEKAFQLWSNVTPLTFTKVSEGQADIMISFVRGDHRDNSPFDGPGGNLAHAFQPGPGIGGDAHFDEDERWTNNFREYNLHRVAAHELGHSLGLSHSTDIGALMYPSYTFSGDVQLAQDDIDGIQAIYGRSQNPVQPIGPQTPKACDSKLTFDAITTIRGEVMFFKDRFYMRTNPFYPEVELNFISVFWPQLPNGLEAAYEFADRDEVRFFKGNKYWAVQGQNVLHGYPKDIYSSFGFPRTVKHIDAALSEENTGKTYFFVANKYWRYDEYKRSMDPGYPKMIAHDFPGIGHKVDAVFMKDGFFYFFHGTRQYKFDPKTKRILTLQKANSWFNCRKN

Stromelysin-1 = Stromelysin-1 (Homo sapiens, UniProt P08254); experiment: Inhibition of MMP3
Collagenase 3 = Collagenase 3 (Homo sapiens, UniProt P45452)
Rattus norvegicus [3] = experiment: (§1) Apparent elimination half life in rat at 0.5 mg/kg, iv; format: ADME, organism-based; set-up: dose 0.5 mg/kg, route intravenous; details: in vivo
[4] = AUC in rat at 0.5 mg/kg, iv; format: ADME, organism-based; set-up: dose 0.5 mg/kg, route intravenous; details: plasma
Rattus norvegicus [5] = experiment: (§2) Volume of distribution in rat at 0.5 mg/kg, iv; format: ADME, organism-based; set-up: dose 0.5 mg/kg, route intravenous; details: in vivo
[6] = Metabolic stability in human liver microsomes; format: ADME, Microsome
[7] = Initial concentration in rat at 0.5 mg/kg, iv; format: ADME, organism-based; set-up: dose 0.5 mg/kg, route intravenous; details: in vivo
[8] = as §1; format: ADME, organism-based; set-up: dose 0.5 mg/kg, route intravenous; details: in vivo
[9] = as §2; format: ADME, organism-based; set-up: dose 0.5 mg/kg, route intravenous; details: in vivo, read-out: Vss
[10] = Clearance in rat at 0.5 mg/kg, iv; format: ADME, organism-based; set-up: dose 0.5 mg/kg, route intravenous; details: in vivo

Chain of 72 kDa type IV collagenase (P08253 whole entry): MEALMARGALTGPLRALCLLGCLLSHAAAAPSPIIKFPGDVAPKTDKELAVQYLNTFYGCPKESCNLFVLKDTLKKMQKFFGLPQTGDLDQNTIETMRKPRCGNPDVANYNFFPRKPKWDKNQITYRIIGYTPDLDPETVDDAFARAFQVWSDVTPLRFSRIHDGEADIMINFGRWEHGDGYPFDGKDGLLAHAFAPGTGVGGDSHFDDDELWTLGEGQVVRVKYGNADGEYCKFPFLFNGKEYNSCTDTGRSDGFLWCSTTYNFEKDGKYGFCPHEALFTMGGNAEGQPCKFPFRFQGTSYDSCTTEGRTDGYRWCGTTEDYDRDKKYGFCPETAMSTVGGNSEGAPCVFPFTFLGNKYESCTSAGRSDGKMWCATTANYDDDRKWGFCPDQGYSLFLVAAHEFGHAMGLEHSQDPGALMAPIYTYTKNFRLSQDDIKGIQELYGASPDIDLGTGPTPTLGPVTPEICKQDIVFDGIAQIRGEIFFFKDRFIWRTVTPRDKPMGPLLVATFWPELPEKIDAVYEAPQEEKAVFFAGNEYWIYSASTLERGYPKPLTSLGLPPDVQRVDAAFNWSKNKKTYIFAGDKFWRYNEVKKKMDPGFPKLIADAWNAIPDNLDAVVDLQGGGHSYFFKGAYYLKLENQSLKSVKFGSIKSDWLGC
Chain of Matrix metalloproteinase-9 (P14780 whole entry): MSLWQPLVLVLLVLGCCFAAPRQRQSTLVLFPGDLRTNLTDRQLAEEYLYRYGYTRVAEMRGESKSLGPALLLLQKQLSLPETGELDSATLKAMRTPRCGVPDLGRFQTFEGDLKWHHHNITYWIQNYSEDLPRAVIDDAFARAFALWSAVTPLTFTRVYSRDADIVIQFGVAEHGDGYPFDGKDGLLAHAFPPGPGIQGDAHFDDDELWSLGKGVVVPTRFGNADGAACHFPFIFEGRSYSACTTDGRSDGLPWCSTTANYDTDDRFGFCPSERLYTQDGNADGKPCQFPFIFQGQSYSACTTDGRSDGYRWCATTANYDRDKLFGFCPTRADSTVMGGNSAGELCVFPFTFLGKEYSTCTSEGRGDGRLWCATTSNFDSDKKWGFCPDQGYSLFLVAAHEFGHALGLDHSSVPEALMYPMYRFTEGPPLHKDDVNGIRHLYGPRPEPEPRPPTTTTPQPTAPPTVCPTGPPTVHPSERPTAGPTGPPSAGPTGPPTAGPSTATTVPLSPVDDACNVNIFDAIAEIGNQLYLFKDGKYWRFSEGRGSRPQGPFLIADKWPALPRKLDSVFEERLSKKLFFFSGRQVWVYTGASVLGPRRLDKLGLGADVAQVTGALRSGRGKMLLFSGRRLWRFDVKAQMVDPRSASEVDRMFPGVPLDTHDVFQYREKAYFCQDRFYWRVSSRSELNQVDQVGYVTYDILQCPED
Chain of Stromelysin-1 (P08254 whole entry): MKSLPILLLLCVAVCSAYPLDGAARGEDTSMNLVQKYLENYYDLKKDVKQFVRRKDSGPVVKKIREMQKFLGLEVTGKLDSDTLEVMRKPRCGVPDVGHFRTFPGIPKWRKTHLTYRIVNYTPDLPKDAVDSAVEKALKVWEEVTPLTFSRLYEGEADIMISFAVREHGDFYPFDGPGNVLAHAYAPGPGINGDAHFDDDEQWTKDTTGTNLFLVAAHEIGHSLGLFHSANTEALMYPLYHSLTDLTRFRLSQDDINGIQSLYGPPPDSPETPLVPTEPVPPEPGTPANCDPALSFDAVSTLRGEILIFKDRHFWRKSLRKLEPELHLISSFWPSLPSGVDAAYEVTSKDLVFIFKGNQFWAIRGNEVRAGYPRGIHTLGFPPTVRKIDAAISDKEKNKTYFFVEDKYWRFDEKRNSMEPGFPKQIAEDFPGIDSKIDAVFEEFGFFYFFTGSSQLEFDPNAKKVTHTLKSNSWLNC

SMILES | IC50 [1] | other results
Cc1ccc(C#Cc2ccc([S+]([O-])C(CCN3C(=O)c4ccccc4C3=O)C(=O)O)cc2)cc1 (centres undefined) | 1.5 nM | –
COc1ccc(-c2ccc(S(=O)(=O)C(CCN3C(=O)c4ccccc4C3=O)C(=O)O)cc2)cc1 (centres undefined) | 0.84 nM | –
O=C(O)C(CCN1C(=O)c2ccccc2C1=O)S(=O)(=O)c1ccc(Oc2ccc(OC(F)(F)F)cc2)cc1 (centres undefined) | 19 nM | –
O=C(O)C(CN1C(=O)c2ccccc2C1=O)S(=O)(=O)c1ccc(-c2ccc(Cl)cc2)cc1 (centres undefined) | 556 nM | IC50 [2]: 1050 nM
CSc1ccc(-c2ccc(S(=O)(=O)C(CCN3C(=O)c4ccccc4C3=O)C(=O)O)cc2)cc1 (centres undefined) | 0.74 nM | –
Cc1ccc(C#Cc2ccc(SC(CCN3C(=O)c4ccccc4C3=O)C(=O)O)cc2)cc1 (centres undefined) | 33 nM | –
O=C(O)C(CCN1C(=O)c2ccccc2C1=O)Sc1ccc(C#Cc2ccc(Cl)cc2)cc1 (centres undefined) | 1.9 nM | –
O=C(O)C(CCSc1ccccc1)S(=O)(=O)c1ccc(-c2ccc(Cl)cc2)cc1 (centres undefined) | 295 nM | IC50 [2]: > 10000 nM
O=C(O)C(CCN1C(=O)c2ccccc2C1=O)S(=O)(=O)c1ccc(-c2nc3ccc(F)cc3[nH]2)cc1 (centres undefined) | 0.7 nM | IC50 (Interstitial collagenase): > 1000 nM; IC50 (Stromelysin-1): 34 nM; IC50 (Collagenase 3): 0.8 nM
Cc1ccc(C#Cc2ccc(S(=O)(=O)C(CCN3C(=O)c4ccccc4C3=O)C(=O)O)cc2)cc1 (centres undefined) | 0.7 nM | IC50 (Interstitial collagenase): > 1000 nM; IC50 (Stromelysin-1): 28 nM; IC50 (Collagenase 3): 1.4 nM
O=C(O)C(CCN1C(=O)c2ccccc2C1=O)S(=O)(=O)c1ccc(-c2ccc(Cl)cc2)cc1 (centres undefined) | 1.8 nM | T1/2 (Rattus norvegicus [3]): 84 min; AUC [4]: 18.2 µg·h/mL; Vss (Rattus norvegicus [5]): 0.4 L/kg; half-life [6]: 230 min; C0 [7]: 41.4 µM
CCCc1ccc(C#Cc2ccc(SC(CCN3C(=O)c4ccccc4C3=O)C(=O)O)cc2)cc1 (centres undefined) | 1.1 nM | –
O=C(O)C(CCN1C(=O)c2ccccc2C1=O)Sc1ccc(C#Cc2ccc(OC(F)(F)F)cc2)cc1 (centres undefined) | 1.3 nM | –
CC(CCN1C(=O)c2ccccc2C1=O)(C(=O)O)S(=O)(=O)c1ccc(-c2ccc(Cl)cc2)cc1 (centres undefined) | 52 nM | –
CC(C)c1ccc(-c2ccc(S(=O)(=O)C(CCN3C(=O)c4ccccc4C3=O)C(=O)O)cc2)cc1 (centres undefined) | 0.98 nM | –
Cc1ccc(-c2ccc(S(=O)(=O)C(CCN3C(=O)c4ccccc4C3=O)C(=O)O)cc2)cc1 (centres undefined) | 1.2 nM | –

Continued by falling IC50 [1], values first:

IC50 [1] | SMILES | other results
3060 nM | CC(CCN1Cc2ccccc2C1)(C(=O)O)S(=O)(=O)c1ccc(-c2ccc(Cl)cc2)cc1 (centres undefined) | IC50 [2]: > 10000 nM
792 nM | CCCC(C(=O)O)S(=O)(=O)c1ccc(-c2ccc(Cl)cc2)cc1 (centres undefined) | IC50 [2]: 10000 nM
145 nM | O=C(O)C(CCCN1C(=O)c2ccccc2C1=O)S(=O)(=O)c1ccc(-c2ccc(Cl)cc2)cc1 (centres undefined) | IC50 [2]: 2120 nM
54 nM | COc1ccc(C(=O)Cc2ccc(SC(CCN3C(=O)c4ccccc4C3=O)C(=O)O)cc2)cc1 (centres undefined) | –
12 nM | O=C(O)C(CCN1C(=O)c2ccccc2C1=O)S(=O)(=O)c1ccc(N2CC=C(c3ccc(Cl)cc3)CC2)cc1 (centres undefined) | –
8.6 nM | O=C(O)C(CCN1Cc2ccccc2C1=O)S(=O)(=O)c1ccc(-c2ccc(Cl)cc2)cc1 (centres undefined) | IC50 [2]: 96.5 nM
6.8 nM | N#Cc1ccc(N2CCN(c3ccc(S(=O)(=O)C(CCN4C(=O)c5ccccc5C4=O)C(=O)O)cc3)CC2)cc1 (centres undefined) | –
6.5 nM | O=C(O)C(CCN1C(=O)c2ccccc2C1=O)S(=O)(=O)c1ccc(-c2ccc(F)cc2)cc1 (centres undefined) | –
4 nM | COc1cccc(C#Cc2ccc(SC(CCN3C(=O)c4ccccc4C3=O)C(=O)O)cc2)c1 (centres undefined) | –
3 nM | N#Cc1ccc(-c2ccc(S(=O)(=O)C(CCN3C(=O)c4ccccc4C3=O)C(=O)O)cc2)cc1 (centres undefined) | –
2.3 nM | CCCCc1ccc(C#Cc2ccc(SC(CCN3C(=O)c4ccccc4C3=O)C(=O)O)cc2)cc1 (centres undefined) | –
1.7 nM | CC(C)c1ccc(C#Cc2ccc(SC(CCN3C(=O)c4ccccc4C3=O)C(=O)O)cc2)cc1 (centres undefined) | –
1.3 nM | CCc1ccc(C#Cc2ccc(SC(CCN3C(=O)c4ccccc4C3=O)C(=O)O)cc2)cc1 (centres undefined) | –
0.62 nM | O=C(NO)C(CCN1C(=O)c2ccccc2C1=O)S(=O)(=O)c1ccc(-c2ccc(Cl)cc2)cc1 (centres undefined) | half-life [8]: 58.8 min; AUC [4]: 2.94 µg·h/mL; Vd [9]: 0.1 L/kg; clearance [10]: 0.174 L/h/kg; half-life [6]: 12 min; C0 [7]: 13.9 µM; IC50 [2]: 1.4 nM
